Laboratory results published in US20190308994A1, “Topical Pharmaceutical Formulations For Treating Inflammatory-Related Conditions” (Anacor Pharmaceuticals, Inc., priority 2015, published 2019).
Converted amounts (≈) assume the structure as drawn. Where two headings read alike, the source gives them in different places.

Tests used:
[1] = Solubility of crisaborole in solvents by visual assessment; assay type: physicochemical
Method: (§1) One of the key aspects encountered in reformulating crisaborole was that the active agent be fully dissolved within its solvent. A selection criterion of greater than 10% w/w crisaborole solubility was used to select solvents capable of carrying at least 1% crisaborole in a final drug product formulation, assuming the drug product contained 10% solvent. The solubility of crisaborole in ten solvents was evaluated to identify those with crisaborole solubility greater than 10% w/w by visual assessment. The equilibrium solubility of the best solvents was subsequently verified by HPLC.

[2] = Equilibrium solubility of crisaborole in solvents by HPLC; assay type: physicochemical; settings: thermodynamic from solid, read-out: Solubity by HPLC
Method: as §1

Visual Solubity ([1]; in Diisopropyl Adipate): 7.7% w/w | Visual Solubity ([1]; in Ethylhexyl Hydroxystearate): 1.6% w/w | Visual Solubity ([1]; in Hexylene Glycol, NF): 25.9% w/w | Visual Solubity ([1]; in Isopropyl Myristate, NF): 0.6% w/w | Visual Solubity ([1]; in Oleic Acid, NF): <0.1% w/w | Visual Solubity ([1]; in Oleyl Alcohol, NF): 2.3% w/w | Visual Solubity ([1]; in Polyethylene Glycol (PEG) 400, USP): 15.0% w/w | Visual Solubity ([1]; in Propylene Carbonate, NF): 9.9% w/w | Visual Solubity ([1]; in Propylene Glycol, USP): 24.0% w/w | Visual Solubity ([1]; in Transcutol P, NF): 28.6% w/w | solubility ([2]; oil or lipid, in Ethylhexyl Hydroxystearate): 21 mg/mL (≈ 83.6 mM) | solubility ([2]; oil or lipid, in Oleyl Alcohol, NF): 33 mg/mL (≈ 131 mM) | solubility ([2]; organic solvent or mixture, in Hexylene Glycol, NF): 356 mg/mL (≈ 1420 mM) | solubility ([2]; organic solvent or mixture, in Polyethylene Glycol (PEG) 400, USP): 164 mg/mL (≈ 653 mM) | solubility ([2]; organic solvent or mixture, in Propylene Carbonate, NF): 96 mg/mL (≈ 382 mM) | solubility ([2]; organic solvent or mixture, in Propylene Glycol, USP): 274 mg/mL (≈ 1090 mM) | solubility ([2]; organic solvent or mixture, in Transcutol P, NF): 21.2 mg/mL (≈ 84.4 mM)
Structure (SMILES): N#Cc1ccc(Oc2ccc3c(c2)COB3O)cc1 [Crisaborole Form II, 5-(4-cyanophenoxy)-1,3-dihydro-1-hydroxy-2,1-benzoxaborole]
